Patent US6444684B1 (priority 1993, dated 2002)
Read-outs that look alike come from different tables or passages of the source.

Key:
[1] = test system: ras oncogene p21 protein; conditions: U.S. Pat. No. 5,158,960; Liu et al.; cited from earlier work
[2] = molecular target: HIV-RT (Human immunodeficiency virus type 1 group M subtype B, UniProt P03366); test: HIV-RT inhibition by AZT-TP, lavendamycin analogs and their combinations; format: biochemical; design: unit of the concentration uncertain; conditions: AZT-TP Conc. 0 (unit uncertain); for % inh. ave.: average of three trials
Description: AZT-TP was used for these in vitro studies since AZT is naturally phosphorylated in vivo.
The results of these tests are given in Table XVIII and XIX below, where the percent inhibition of HIV-RT activity is reported for three different trials and then averaged in the seventh column. […] .

[3] = test system: normal rat kidney epithelial (NRKE) cells
[4] = test system: K/1 = ras^K Transformed NRKE Cells; conditions: for Differential Index K/1: K/1 = ras^K transformed NRKE cells, compared with normal NRKE cells; for selective toxicity against ras^K oncogene bearing tumor cells as compared to the normal, non-transformed cells: LC50 NRKE divided by LC50 K/1
[5] = test system: H/1.2 = ras^H Transformed NRKE Cells; conditions: for Differential Index H/1.2: H/1.2 = ras^H transformed NRKE cells, compared with normal NRKE cells
[6] = test system: N/4.2-NRKE transformed by the human ras^N gene; conditions: for Differential Index N/4.2: N/4.2 = ras^N transformed NRK cells, compared with normal NRKE cells
[7] = test system: 3LL = Lewis Lung Carcinoma Cells; conditions: for Differential Index 3LL: 3LL = Lewis lung carcinoma cells, compared with normal NRKE cells
[8] = test system: Leukemia cell lines; test: NCI in vitro anticancer screen (SRB), leukemia subpanel; conditions: for Activity (Average PG for highest dose tested) Leukemia: 48 hours exposure, average percent growth over the cell lines
Description: (§1) Compounds chosen for the program are initially tested in an in vitro anticancer screen. A total of fifty-five human tumor cell lines, derived from nine cancer types (lung, colon, melanoma, renal, ovarian, brain, prostate, breast and leukemia), are used in this screen. The tumor cells are inoculated over a series of standard 96-well microtiter plates on day 0. These cells are then preincubated on the microtiter plates for 24 hours. The test compounds are added to the wells in five 10-fold dilutions starting from the highest soluble concentration. Each compound is tested against every cell line in the panel. The compounds are incubated for 48 hours with the tumor cell lines. At the termination of the assay, the cells are fixed in situ, washed, and dried. Sulforhodamine B (SRB), a pink anionic dye that binds to the basic amino acids of trichloroacetic acid-fixed cells, is added. The cells are washed again, and the remaining dye is a function of the adherent cell mass. The bound stain is solubilized and measured spectrophotometrically. The data are entered from automatic reading devices into a computer for subsequent storage and analysis.
(§2) The measured effect of each test compound on the cell lines is calculated according to one or the other of the following two expressions:
(§3) If (Mean ODtest−Mean ODtzero)□0, then PG=100×(Mean ODtest−Mean ODtzero)/(Mean ODctrl−Mean ODtzero);
(§4) If (Mean ODtest−Mean ODtzero)<0, then PG=100×(Mean ODtest−Mean ODtzero)/Meantzero;
(§5) First, a data sheet is provided which lists, for each cell line, the Mean ODtzero, the Mean ODctrl, the Mean ODtest for each of the five concentrations, the calculated PGs for each concentration, and the response parameters G150, TGI, and LC50.
(§6) Third, mean graphs at each of the principal response parameters (GI50, TGI, and LC50) are provided. […] Since the bar scale is logarithmic, a bar two units to the right implies the compound achieved the response parameter (e.g., GI50) for the cell line at a concentration 1/100 the mean concentration required over all cell lines, and thus the cell line is unusually sensitive to that compound. Bars extending to the left correspondingly imply sensitivity less than the mean. Thus, the mean graphs facilitate visual scanning of data for potential patterns of selectivity for particular cell lines or for particular subpanels with respect to a selected response parameter.

[9] = test system: Melanoma cell lines; test: NCI in vitro anticancer screen (SRB), melanoma subpanel; conditions: 48 hours exposure; average percent growth over the cell lines
Description: as §1, §2, §3, §4, §5, §6

[10] = test system: CNS Cancer cell lines; test: NCI in vitro anticancer screen (SRB), CNS cancer subpanel; conditions: 48 hours exposure; average percent growth over the cell lines
Description: as §1, §2, §3, §4, §5, §6

[11] = test system: Colon Cancer cell lines; test: NCI in vitro anticancer screen (SRB), colon cancer subpanel; conditions: 48 hours exposure; average percent growth over the cell lines
Description: as §1, §2, §3, §4

[12] = test system: Renal Cancer cell lines; test: NCI in vitro anticancer screen (SRB), renal cancer subpanel; conditions: for Activity (Average PG for highest dose tested) Renal Cancer: 48 hours exposure, average percent growth over the cell lines
Description: as §1, §2, §3, §4, §5, §6

[13] = test system: Breast Cancer cell lines; test: NCI in vitro anticancer screen (SRB), breast cancer subpanel; conditions: 48 hours exposure; average percent growth over the cell lines
Description: as §1, §2, §3, §4

[14] = test system: Ovarian Cancer cell lines; test: NCI in vitro anticancer screen (SRB), ovarian cancer subpanel; conditions: 48 hours exposure; average percent growth over the cell lines
Description: as §1, §2, §3, §4

[15] = test system: Prostate Cancer cell lines; test: NCI in vitro anticancer screen (SRB), prostate cancer subpanel; conditions: 48 hours exposure; average percent growth over the cell lines
Description: as §1, §2, §3, §4

[16] = test system: Non-Small Cell Lung Cancer cell lines; test: NCI in vitro anticancer screen (SRB), non-small cell lung cancer subpanel; conditions: 48 hours exposure; average percent growth over the cell lines
Description: as §1, §2, §3, §4, §5, §6

[17] = test system: K/1-NRKE tumor (ras^K-transformed NRKE cells)
[18] = test system: K/1 = ras^K Transformed NRKE Cells; test: cells; conditions: Rattus norvegicus, read-out: LC50 K/1
[19] = test system: H/1.2 = ras^H Transformed NRKE Cells; test: cells; conditions: Rattus norvegicus, read-out: LC50 H/1.2
[20] = test system: N/4.2-NRKE transformed by the human ras^N gene; test: cells; conditions: N42, read-out: LC50 N/4.2
[21] = test system: 3LL = Lewis Lung Carcinoma Cells; test: cells; conditions: Mus musculus
[22] = in vitro; conditions: rat, LC50 NRKE
[23] = 120 h, read-out: LC50 3LL, Table VII, concentration giving 50% cell kill, 5 days exposure
[24] = read-out: LC50 3LL, Table XV (Example 51)

SMILES: COC1=C(N)C(=O)c2nc(-c3nc(C(=O)O)c(C)c(-c4ccc(OC)cc4O)c3N)ccc2C1=O [10′-Desmethoxystreptonigrin, 10′-desmethoxystreptonigrin]
- activity relative to streptonigrin in an assay for the inhibition of the farnesylation of ras oncogene p21 protein [1]: three times more active than streptonigrin

SMILES: CC(=O)NC1=CC(=O)c2ccc(-c3nc(C(N)=O)cc4c3[nH]c3ccccc34)nc2C1=O [Compound 16]
- % inh. Trial 1 ([2]; LA Conc. 3.0 (unit uncertain)): 0%
- % inh. Trial 2 ([2]; LA Conc. 3.0 (unit uncertain)): 3%
- % inh. Trial 3 ([2]; LA Conc. 3.0 (unit uncertain)): 12%
- % inh. ave. ([2]; LA Conc. 3.0 (unit uncertain)): 5.0%
- % inh. Trial 1 ([2]; LA Conc. 6.0 (unit uncertain)): 26%
- % inh. Trial 2 ([2]; LA Conc. 6.0 (unit uncertain)): 33%
- % inh. Trial 3 ([2]; LA Conc. 6.0 (unit uncertain)): 30%
- % inh. ave. ([2]; LA Conc. 6.0 (unit uncertain)): 29.7%
- % inh. Trial 1 ([2]; LA Conc. .5 (unit uncertain)): 0%
- % inh. Trial 2 ([2]; LA Conc. .5 (unit uncertain)): 0%
- % inh. Trial 3 ([2]; LA Conc. .5 (unit uncertain)): 0%
- % inh. ave. ([2]; LA Conc. .5 (unit uncertain)): 0.0%
- CC50 [3]: 900 nM
- CC50 [4]: 350 nM
- Differential Index K/1 [4]: 2.57
- CC50 [5]: 0.23 µM
- Differential Index H/1.2 [5]: 3.91
- CC50 [6]: 0.22 µM
- Differential Index N/4.2 [6]: 4.09
- CC50 [7]: 210 nM
- Differential Index 3LL [7]: 4.29
- Activity (Average PG for highest dose tested) Leukemia [8]: −28.3%
- Activity (Average PG for highest dose tested) Melanoma [9]: −78.4%
- Activity (Average PG for highest dose tested) CNS Cancer [10]: −60.4%
- Activity (Average PG for highest dose tested) Colon Cancer [11]: −52.1%
- Activity (Average PG for highest dose tested) Renal Cancer [12]: −72.9%
- Selectivity: sensitivity of one of the seven renal cancer cell lines relative to average sensitivity of the fifty-five cell lines ([12]; at GI50, TGI and/or LC50, initial screen): One of the seven renal cancer cell lines was about 100 times
- selectivity for renal cancer (in words) ([12]; repeat cancer screen): did not exhibit the selectivity for renal cancer
- Activity (Average PG for highest dose tested) Breast Cancer [13]: −45.1%
- Activity (Average PG for highest dose tested) Ovarian Cancer [14]: −55.5%
- Activity (Average PG for highest dose tested) Prostate Cancer [15]: −18.0%
- Activity (Average PG for highest dose tested) Non-Small Cell Lung Cancer [16]: −52.3%

SMILES: CC(=O)NC1=CC(=O)c2ccc(-c3nc(C(=O)OCCC(C)C)cc4c3[nH]c3ccccc34)nc2C1=O [Compound 20]
- selective toxicity against ras^K oncogene bearing tumor cells as compared to the normal, non-transformed cells [4]: 18 fold
- tumor growth inhibition in vivo (in words) ([17]; mouse, in vivo): excellent tumor growth inhibition
- Activity (Average PG for highest dose tested) Leukemia [8]: −4.0%
- Activity (Average PG for highest dose tested) Melanoma [9]: −75.2%
- Activity (Average PG for highest dose tested) CNS Cancer [10]: −49.5%
- Activity (Average PG for highest dose tested) Colon Cancer [11]: −53.0%
- Activity (Average PG for highest dose tested) Renal Cancer [12]: −56.1%
- Activity (Average PG for highest dose tested) Breast Cancer [13]: −38.6%
- Activity (Average PG for highest dose tested) Ovarian Cancer [14]: −42.2%
- Activity (Average PG for highest dose tested) Prostate Cancer [15]: −70.5%
- Activity (Average PG for highest dose tested) Non-Small Cell Lung Cancer [16]: −19.1%

SMILES: CCCCCCCCOC(=O)c1cc2c([nH]c3ccccc32)c(-c2ccc3c(n2)C(=O)C(NC(C)=O)=CC3=O)n1 [Compound 21]
- CC50 [4]: 250 nM
- selective toxicity against ras^K oncogene bearing tumor cells as compared to the normal, non-transformed cells [4]: 132 fold
- CC50 [5]: 7.6 µM
- CC50 [6]: 9 µM
- Number Dead Number Treated ([17]; 150 Mg/Kg/Day IP once daily for 8 days): 0/7
- Number Dead Number Treated ([17]; 300 Mg/Kg/Day IP once daily for 8 days): 0/7
- toxicity in tumor-bearing nude mice (in words) ([17]; even at doses up to 300 mg/kg/day): little or no toxicity
- tumor growth inhibition in vivo (in words) ([17]; summary of Table X): excellent tumor growth inhibition
- Activity (Average PG for highest dose tested) Leukemia [8]: +20.3%
- Activity (Average PG for highest dose tested) Melanoma [9]: +58.6%
- Activity (Average PG for highest dose tested) CNS Cancer [10]: +59.3%
- Activity (Average PG for highest dose tested) Colon Cancer [11]: +62.3%
- Activity (Average PG for highest dose tested) Renal Cancer [12]: +67.5%
- Activity (Average PG for highest dose tested) Breast Cancer [13]: +62.9%
- Activity (Average PG for highest dose tested) Ovarian Cancer [14]: +47.0%
- Activity (Average PG for highest dose tested) Prostate Cancer [15]: +69.5%
- Activity (Average PG for highest dose tested) Non-Small Cell Lung Cancer [16]: +13.0%

SMILES: CC(=O)NC1=CC(=O)c2ccc(C=O)nc2C1=O [Compound 23, 7-ACETAMIDO-2-FORMYLQUINOLINE-5,8-DIONE]
- Differential Index K/1 [4]: 0.4
- Differential Index H/1.2 [5]: 0.9
- Differential Index N/4.2 [6]: 0.7
- Differential Index 3LL [7]: 1.35
- CC50 ([18]; 120 h): 2.6 µM
- CC50 [18]: 12.5 µM
- CC50 ([19]; 120 h): 2.5 µM
- CC50 [19]: 5.5 µM
- CC50 [20]: 7 µM
- CC50 [21, 23]: 1200 nM
- CC50 [21, 24]: 3700 nM

SMILES: O=Cc1ccc2c(n1)C(=O)C(NC(=O)CCl)=CC2=O [Compound 24, 7-CHLOROACETAMIDO-2-FORMYLQUINOLINE-5,8-DIONE]
- Differential Index K/1 [4]: 0.6
- Differential Index H/1.2 [5]: 1.06
- Differential Index N/4.2 [6]: 1.125
- Differential Index 3LL [7]: 1.7
- CC50 [18]: 5.8 µM
- CC50 [19]: 3.4 µM
- CC50 [20]: 3.2 µM
- CC50 [21, 24]: 2100 nM
- CC50 at 5 days [22]: 3600 nM

SMILES: CCCC(=O)NC1=CC(=O)c2ccc(C=O)nc2C1=O [Compound 26, 7-BUTYRAMIDO-2-FORMYLQUINOLINE-5,8-DIONE]
- Differential Index K/1 [4]: <0.9
- Differential Index H/1.2 [5]: 0.9
- Differential Index N/4.2 [6]: <0.9
- Differential Index 3LL [7]: 1.2
- CC50 [18]: > 3.3 µM
- CC50 [19]: 3.3 µM
- CC50 [20]: > 3.3 µM
- CC50 [21, 24]: 2500 nM
- CC50 at 5 days [22]: 3000 nM
- Activity (Average PG for highest dose tested) Leukemia [8]: −10.8%
- Activity (Average PG for highest dose tested) Melanoma [9]: −79.0%
- Activity (Average PG for highest dose tested) CNS Cancer [10]: −61.0%
- Activity (Average PG for highest dose tested) Colon Cancer [11]: −17.9%
- Activity (Average PG for highest dose tested) Renal Cancer [12]: −93.0%
- Activity (Average PG for highest dose tested) Breast Cancer [13]: −35.0%
- Activity (Average PG for highest dose tested) Ovarian Cancer [14]: −63.2%
- Activity (Average PG for highest dose tested) Prostate Cancer [15]: −81.5%
- Activity (Average PG for highest dose tested) Non-Small Cell Lung Cancer [16]: −50.9%

SMILES: CC(=O)NC1=CC(=O)c2ccc(C)nc2C1=O [Compound 27, 7-ACETAMIDO-2-METHYLQUINOLINE-5,8-DIONE]
- CC50 ([3]; rat, 5 days): 4600 nM
- Differential Index K/1 [4]: 0.3
- Differential Index H/1.2 [5]: 0.9
- Differential Index N/4.2 [6]: 0.8
- Differential Index 3LL [7]: 1.8
- CC50 ([18]; 120 h): 5.9 µM
- CC50 [18]: 14 µM
- CC50 ([19]; 120 h): 4.4 µM
- CC50 [19]: 5 µM
- CC50 [20]: 5.7 µM
- CC50 [21, 23]: 2000 nM
- CC50 [21, 24]: 2600 nM
- CC50 at 5 days [22]: 2400 nM

SMILES: Cc1ccc2c(n1)C(=O)C(NC(=O)CCl)=CC2=O [Compound 28, 7-CHLOROACETAMIDO-2-METHYLQUINOLINE-5,8-DIONE]
- Differential Index K/1 [4]: 0.48
- Differential Index H/1.2 [5]: 1.1
- Differential Index N/4.2 [6]: 0.9
- Differential Index 3LL [7]: 1.4
- CC50 [18]: 6.6 µM
- CC50 [19]: 2.8 µM
- CC50 [20]: 3.4 µM
- CC50 [21, 24]: 2300 nM
- CC50 at 5 days [22]: 3200 nM

SMILES: CCCC(=O)NC1=CC(=O)c2ccc(C)nc2C1=O [Compound 30, 7-BUTYRAMIDO-2-METHYLQUINOLINE-5,8-DIONE]
- Differential Index K/1 [4]: <0.6
- Differential Index H/1.2 [5]: 0.7
- Differential Index N/4.2 [6]: <0.6
- Differential Index 3LL [7]: 0.9
- CC50 [18]: > 3.3 µM
- CC50 [19]: 2.7 µM
- CC50 [20]: > 3.3 µM
- CC50 [21, 24]: 2200 nM
- CC50 at 5 days [22]: 2000 nM
- Activity (Average PG for highest dose tested) Leukemia [8]: −21.7%
- selectivity for leukemia (in words) ([8]; repeat cancer screen): showed selectivity for leukemia
- Activity (Average PG for highest dose tested) Melanoma [9]: −85.1%
- Activity (Average PG for highest dose tested) CNS Cancer [10]: −93.8%
- Activity (Average PG for highest dose tested) Colon Cancer [11]: −66.6%
- Activity (Average PG for highest dose tested) Renal Cancer [12]: −92.0%
- Activity (Average PG for highest dose tested) Breast Cancer [13]: −62.7%
- Activity (Average PG for highest dose tested) Ovarian Cancer [14]: −86.7%
- Activity (Average PG for highest dose tested) Prostate Cancer [15]: −79.0%
- Activity (Average PG for highest dose tested) Non-Small Cell Lung Cancer [16]: −71.1%
